“Also recorded” adds a separate entry of the source. Read-outs that look alike come from different tables or passages of the source.

Consider 20 compounds from US20070219172A1, “Selective testicular 11beta-HSD inhibitors for the treatment of hypergonadism associated disorders and modulation of fertility” (The Miriam Hospital, priority 2005, published 2007).

Assay [1] addresses T1, 11β-HSD1 Dehydrogenase (Rattus norvegicus, UniProt P16232).
T1 construct: testicular leydig cell homogenates; from tissue; host or cells: testicular Leydig cell homogenates
Put plainly: 11β-HSD1 dehydrogenase inhibition, testicular Leydig cell homogenates. In kind it is biochemical. Conditions: result in words.

In assay [2] the target is T2, 11β-HSD1 Reductase (Rattus norvegicus, UniProt P16232).
T2 construct: testicular leydig cell homogenates; from tissue; host or cells: testicular Leydig cell homogenates
Kind of assay: 11β-HSD1 reductase inhibition, testicular Leydig cell homogenates. In kind it is biochemical. Particulars: result in words.

The subject of assay [3] is rat Leydig cells.
Assay [4] concerns the target T3, 11β-HSD2 Dehydrogenase (Ovis aries, UniProt P50168).
T3 construct: sheep kidney microsomes; from tissue; host or cells: sheep kidney microsomes
T3 sequence (P50168 1-427): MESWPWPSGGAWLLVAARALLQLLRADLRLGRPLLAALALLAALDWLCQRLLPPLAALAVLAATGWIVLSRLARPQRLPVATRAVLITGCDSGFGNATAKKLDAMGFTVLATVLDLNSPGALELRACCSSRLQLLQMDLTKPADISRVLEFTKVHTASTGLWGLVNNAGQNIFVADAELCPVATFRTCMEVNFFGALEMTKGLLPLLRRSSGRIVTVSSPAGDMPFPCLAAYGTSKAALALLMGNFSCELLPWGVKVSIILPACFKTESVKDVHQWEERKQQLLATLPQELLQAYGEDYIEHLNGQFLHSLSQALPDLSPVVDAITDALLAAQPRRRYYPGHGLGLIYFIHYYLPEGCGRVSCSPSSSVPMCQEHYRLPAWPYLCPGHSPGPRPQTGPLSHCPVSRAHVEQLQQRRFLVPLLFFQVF
Put plainly: 11β-HSD2 dehydrogenase inhibition, sheep kidney microsomes. Format: biochemical. Particulars: result in words.

The target of assay [5] is T2, 11β-HSD1 Reductase. Put plainly: Backward reaction of 11β-HSD1 reductase in rat Leydig cells. In kind it is cell-based. How it is done:
Similar experiments were performed with 3α,5β-deoxycorticosterone and 3α,5β progesterone, neither of which posess an 11β-hydroxy group.

Assay [6] concerns rat aortic rings. Put plainly: Contractile response of rat aortic rings to phenylephrine. Particulars: rat aortic rings incubated with the steroid, versus controls. How it is done:
Male Sprague-Dawley (150-200 g) rats were anesthetized with pentobarbital (50 mg/kg IP), and a median sternotomy was performed followed by the rapid removal of the thoracic aorta. The adventitia was removed, but the endothelium was left intact. The aorta was cut into 2-3 mm rings and individual rings were placed into a single well of a twenty four well culture plate and incubated at 37° C. under 95% O2-5% CO2. Each well contained 1 mL of DMEM/F12 containing 1% fetal bovine serum, streptomycin (100 μg/ml), penicillin (100 units/ml) and amphotericin (0.25 μg/ml). Aortic rings were incubated for 24 hours prior to contractility measurements with the following combinations of steroids, and antisense/nonsense oligonucleotides (3 μmol/L):
Antisense phosphorothioate oligonucleotides, targeted to block either 11β-HSD2 or 11β-HSD1 gene expression, were obtained from Research Genetics, Huntsville Ala. Antisense oligomers complementary to 20 bp sequences spanning the ribosome binding/translation start site were used. Oligomer sequences were: 5′-CATAACTGCCGTCCAACAGC-3′ (SEQ ID No.: 2) for 11β-HSD1 Antisense and 5′-AGCCCAGCGCTCCATGACTT-3′ (SEQ ID No. 3) for 111-HSD2 antisense. In control experiments the corresponding sense sequence was used as the nonsense oligomer. Antisense and nonsense oligomers were added directly to each well at 20 μg/10:1 sterile H20 per well for a final concentration of 3 μmol/L.
For contraction measurements, aortic rings were suspended by tungsten wires with 1 g of tension and placed in a vessel bath containing serum free DMEM/F12 media at 37° C. aerated with 95% O2-5% CO2, at pH 7.4. Vessels were equilibrated for 20 minutes and then tested with phenylephrine ([…]-10 μmol/L). […] The intensity of contraction was assessed by use of a Narishige micromanipulator and model FT03 force transducer (Grass Instrument Co. West Warwick, R.I.). Measurements were recorded on computer using the Labview 4.1 Virtual Instrument System (National Instruments, Austin, Tex.).

Setting [7] is: whole cell preparations of rat Leydig cells.

T2 sequence (P16232 whole entry): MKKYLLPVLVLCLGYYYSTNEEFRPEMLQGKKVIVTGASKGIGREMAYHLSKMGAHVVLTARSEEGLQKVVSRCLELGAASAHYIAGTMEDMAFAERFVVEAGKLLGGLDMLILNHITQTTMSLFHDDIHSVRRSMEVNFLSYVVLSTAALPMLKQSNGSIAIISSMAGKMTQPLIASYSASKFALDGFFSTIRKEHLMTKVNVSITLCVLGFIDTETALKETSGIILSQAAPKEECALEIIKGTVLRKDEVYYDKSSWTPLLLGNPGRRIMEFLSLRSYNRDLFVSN
T1 sequence (P16232 whole entry): as above

In the case of 3α,5α-reduced-11-keto-progesterone, the “11β-HSD1 Dehydrogenase inhibition” value in assay [1] is recorded as “No Inhibition”. In addition, the “11β-HSD1 Reductase inhibition” value in assay [2] was “Selective Inhibitor”.

On to `C[C@]12CC[C@@H](O)C[C@@H]1CC[C@@H]1[C@@H]2CC[C@]2(C)[C@@H](O)CC[C@@H]12` [3α5α TH-testosterone], for which, in assay [3], the “increase in NADPH production” value is listed as “three to five fold increase”.

In the case of `C[C@@]12CC[C@@H]3[C@H]([C@@H](O)C[C@]4(C=O)[C@@H](C(=O)CO)CC[C@@H]34)[C@@]1(C)CC[C@@H](O)C2` [3α,5α-reduced aldosterone], the “11β-HSD1 Dehydrogenase inhibition” value in assay [1] is given as “Moderate Inhibitor”. For the same compound, the “11β-HSD1 Reductase inhibition” value in assay [2] is “No Inhibition”. Besides, the “11β-HSD2 Dehydrogenase inhibition” value in assay [4] is recorded as “Potent Inhibitor”.

As to `C[C@]12CC[C@@H](O)C[C@@H]1CC[C@@H]1[C@@H]2C(=O)C[C@]2(C)C(=O)CC[C@@H]12` [3α,5α-reduced-11-keto-androstenedione], the “11β-HSD1 Dehydrogenase inhibition” value in assay [1] is “No Inhibition”. In addition, in assay [2], the “11β-HSD1 Reductase inhibition” value is reported as “Selective Inhibitor”.

Turning to `C[C@]12CC[C@H](O)C[C@@H]1CC[C@H]1[C@@H]3CC[C@H](O)[C@@]3(C)CC(=O)[C@@H]12` [3α,5α-reduced-11-keto-testosterone], the “11β-HSD1 Dehydrogenase inhibition” value in assay [1] is given as “No Inhibition”. For the same compound, in assay [2], the “11β-HSD1 Reductase inhibition” value is recorded as “Selective Inhibitor”.

With `C[C@]12CC[C@H](O)C[C@H]1CC[C@@H]1[C@@H]2[C@@H](O)C[C@]2(C)C(=O)CC[C@H]12` [3α,5α-reduced-11β-OH-androstenedione], in assay [1], the “11β-HSD1 Dehydrogenase inhibition” value is on record as “Moderate Inhibitor”. Moreover, in assay [2], the “11β-HSD1 Reductase inhibition” value is on record as “No Inhibition”. Also, the “11β-HSD2 Dehydrogenase inhibition” value in assay [4] is “Potent Inhibitor (Non-Selective)”.

On to `CC(=O)[C@H]1CC[C@H]2[C@@H]3CC[C@H]4C[C@@H](O)CC[C@]4(C)[C@H]3[C@@H](O)C[C@]12C` [3α,5α-reduced-11β-OH-progesterone], for which the “11β-HSD1 Dehydrogenase inhibition” value in assay [1] is listed as “Potent Inhibitor (Non-Selective)”. For the same compound, the “11β-HSD1 Reductase inhibition” value in assay [2] is listed as “No Inhibition”. In addition, the “11β-HSD2 Dehydrogenase inhibition” value in assay [4] is “Potent Inhibitor (Non-Selective)”. For the same compound, the “increase in NADPH production” value in assay [3] (setting [7]) is “three to five fold increase”.

On to `C[C@]12CC[C@@H](O)C[C@@H]1CC[C@@H]1[C@@H]2[C@@H](O)C[C@@]2(C)[C@@H]1CC[C@@H]2O` [3α,5α-reduced-11β-OH-testosterone], for which, in assay [1], the “11β-HSD1 Dehydrogenase inhibition” value was “Potent Inhibitor (Non-Selective)”. In assay [2], the “11β-HSD1 Reductase inhibition” value was “No Inhibition”. The “11β-HSD2 Dehydrogenase inhibition” value in assay [4] is “Potent Inhibitor (Non-Selective)”.

In the case of `C[C@]12CC[C@@H](O)C[C@@H]1CC[C@@H]1[C@@H]2[C@@H](O)C[C@]2(C)[C@@H](C(=O)CO)CC[C@@H]12` [3α,5α-reduced-corticosterone], the “11β-HSD1 Dehydrogenase inhibition” value in assay [1] is “Potent Inhibitor”. Further, the “11β-HSD1 Reductase inhibition” value in assay [2] is “No Inhibition”. For the same compound, the “11β-HSD2 Dehydrogenase inhibition” value in assay [4] is reported as “Potent Inhibitor”. Moreover, the “increase in NADPH production” value in assay [3] (setting [7]) is listed as “three to five fold increase”.

On to `C[C@]12CC[C@@H](O)C[C@@H]1CC[C@H]1[C@@H]3CC[C@H](C(=O)CO)[C@@]3(C)CC(=O)[C@@H]12` [3α,5α-tetrahydro-11-dehydro-corticosterone], for which the “11β-HSD1 Dehydrogenase inhibition” value in assay [1] is on record as “No Inhibition”. Also, the “11β-HSD1 Reductase inhibition” value in assay [2] is reported as “Potent Inhibitor”. For the same compound, in assay [4], the “11β-HSD2 Dehydrogenase inhibition” value is given as “Potent Inhibitor”.

`CC(=O)[C@H]1CC[C@H]2[C@@H]3CC[C@@H]4C[C@H](O)CC[C@]4(C)[C@H]3CC[C@]12C` [3α,5β progesterone, 3α,5β-tetrahydro-progesterone]: in assay [1], the “11β-HSD1 Dehydrogenase inhibition” value is on record as “potent inhibitors”. For the same compound, the “effect on the backward reaction of 11β-HSD1 reductase” value in assay [5] is on record as “Neither of these compounds effected the backward reaction”.

In the case of `C[C@]12CC[C@@H](O)C[C@H]1CC[C@@H]1[C@@H]2CC[C@]2(C)[C@@H](C(=O)CO)CC[C@@H]12` [3α,5β-deoxycorticosterone, 3α,5β-terahydro-deoxycorticosterone], the “11β-HSD1 Dehydrogenase inhibition” value in assay [1] is reported as “potent inhibitors”. For the same compound, the “effect on the backward reaction of 11β-HSD1 reductase” value in assay [5] is “Neither of these compounds effected the backward reaction”.

As for `C[C@]12CCC(=O)C[C@@H]1CC[C@@H]1[C@@H]2[C@@H](O)C[C@]2(C)[C@@H](C(=O)CO)CC[C@@H]12` [5α-dihydro-corticosterone], the “11β-HSD1 Dehydrogenase inhibition” value in assay [1] was “Potent Inhibitor”. The “11β-HSD1 Reductase inhibition” value in assay [2] is recorded as “No inhibition”. In addition, the “11β-HSD2 Dehydrogenase inhibition” value in assay [4] is listed as “Potent Inhibitor”.

On to `C[C@]12CCC(=O)C=C1CC[C@@H]1[C@@H]2C(=O)C[C@]2(C)C(=O)CC[C@@H]12` [11-Keto-androstenedione], for which, in assay [1], the “11β-HSD1 Dehydrogenase inhibition” value is listed as “No Inhibition”. Moreover, in assay [2], the “11β-HSD1 Reductase inhibition” value is on record as “Selective Inhibitor”. Besides, in assay [4], the “11β-HSD2 Dehydrogenase inhibition” value is recorded as “No Inhibition”.

In the case of `C[C@]12CC(=O)[C@H]3[C@@H](CCC4=CC(=O)CC[C@@]43C)[C@@H]1CC[C@@H]2O` [11-Keto-testosterone], the “11β-HSD1 Dehydrogenase inhibition” value in assay [1] is on record as “No Inhibition”. In addition, the “11β-HSD1 Reductase inhibition” value in assay [2] is “Selective Inhibitor”. Also, the “11β-HSD2 Dehydrogenase inhibition” value in assay [4] was “No Inhibition”.

In the case of `C[C@]12CC(=O)[C@H]3[C@@H](CCC4=CC(=O)CC[C@@]43C)[C@@H]1CC[C@@H]2C(=O)CO` [11-dehydro-corticosterone], the “amplification of the contractile response to phenylephrine by the steroid” value in assay [6] is on record as “amplified”.

`CC(=O)[C@H]1CC[C@H]2[C@@H]3CCC4=CC(=O)CC[C@]4(C)[C@H]3[C@@H](O)C[C@]12C` [11β-OH-progesterone]: in assay [1], the “11β-HSD1 Dehydrogenase inhibition” value is reported as “Potent Inhibitor (Non-Selective)”. Moreover, the “11β-HSD1 Reductase inhibition” value in assay [2] was “No Inhibition”.

Turning to `C[C@]12C[C@H](O)[C@H]3[C@@H](CCC4=CC(=O)CC[C@@]43C)[C@@H]1CC[C@@H]2O` [11β-OH-testosterone], the “11β-HSD1 Dehydrogenase inhibition” value in assay [1] was “Inhibitor (Non-Selective)”. In addition, the “11β-HSD1 Reductase inhibition” value in assay [2] is “No Inhibition”. The “11β-HSD2 Dehydrogenase inhibition” value in assay [4] is reported as “Inhibitor (Non-Selective)”.

Consider `C[C@H](CCC(=O)O)[C@H]1CC[C@H]2[C@@H]3[C@H](O)C[C@@H]4C[C@H](O)CC[C@]4(C)[C@H]3CC[C@]12C` [chenodeoxycholic acid], for which the “11β-HSD1 Dehydrogenase inhibition” value in assay [1] was “potent inhibitors; also recorded: Selective inhibitor”. In addition, the “11β-HSD1 Reductase inhibition” value in assay [2] is listed as “No Inhibition”. Besides, the “11β-HSD2 Dehydrogenase inhibition” value in assay [4] was “No Inhibition”.

For `C[C@]12C[C@H](O)[C@H]3[C@@H](CCC4=CC(=O)CC[C@@]43C)[C@@H]1CC[C@@H]2C(=O)CO` [corticosterone], in assay [6], the “amplification of the contractile response to phenylephrine by the steroid” value is listed as “amplified contractile responses”.
